3 molecules from the NIST ThermoML archive (doi:10.1021/je800481n) can be followed below.

Molecules are shown by their SMILES. Numbers after ± are expanded uncertainties.

Data set [1] is described as follows: refractive index (Na D-line) (dimensionless). As to conditions: 101.3 kPa, Liquid, Standard Abbe refractometry.
Data set [2] can be described thus: Boiling temperature at pressure P. The following applies: 101.3 kPa; Liquid; Ebulliometric method (Recirculating still).

Broadly, the refractive index is the speed of light in vacuum divided by its phase velocity in the sample. Consider `CC(C)c1ccccc1` [isopropylbenzene], for which the refractive index in data set [1] (298.15 K) was found to be 1.48829 ± 0.00037. Also, the “Boiling temperature at pressure P” value in data set [2] stood at 152.29 ± 0.12 °C.

For `CNC(C)=O` [N-methylacetamide], the refractive index in data set [1] (301.15 K) is reported as 1.42854 ± 0.00037. Besides, the “Boiling temperature at pressure P” value in data set [2] came out at 206.00 ± 0.12 °C.

With `CC(=O)N(C)C` [N,N-dimethylethanamide], the refractive index in data set [1] (298.15 K) stood at 1.43507 ± 0.00051. The “Boiling temperature at pressure P” value in data set [2] amounted to 165.62 ± 0.12 °C.
